Experimental data reported in patent US8895535B2, “Pyrrolidinones as MetAP-2 inhibitors” (Merck Patent GmbH, priority 2010, dated 2014).

Target: MetAP-2 (Homo sapiens, UniProt P50579)
Experiment: MetAP-2 activity measurement (coupled enzymatic reactions, substrate Met-Arg-Ser)
Format: biochemical
Conditions: Inhibition of MetAP-2; read-out: IC50 enzyme
Procedure: MetAP-2 Activity Measurement
The MetAP-2 activity is determined by coupling enzymatic reactions. The tripeptide Met-Arg-Ser (MAS) is employed as substrate. The methionine liberated is firstly converted into Metox and H2O2 by L-aminooxidase (AAO).
MetAP-2 activity can be recorded continuously as kinetics. The reaction scheme illustrates that one mol of dianisidineox is formed per mol of methionene. The MetAP-2 enzyme activity can therefore be calculated directly as Δ absorption per time unit. […] of the MetAP-2 activity (mol of Met/time unit) is possible with the aid of the dianisidineox extinction coefficient.
The change in extinction per time unit is depicted graphically and a slope calculation is carried out in the visually linear region of the reaction.

MetAP-2, sequence (P50579 whole entry, species assumed): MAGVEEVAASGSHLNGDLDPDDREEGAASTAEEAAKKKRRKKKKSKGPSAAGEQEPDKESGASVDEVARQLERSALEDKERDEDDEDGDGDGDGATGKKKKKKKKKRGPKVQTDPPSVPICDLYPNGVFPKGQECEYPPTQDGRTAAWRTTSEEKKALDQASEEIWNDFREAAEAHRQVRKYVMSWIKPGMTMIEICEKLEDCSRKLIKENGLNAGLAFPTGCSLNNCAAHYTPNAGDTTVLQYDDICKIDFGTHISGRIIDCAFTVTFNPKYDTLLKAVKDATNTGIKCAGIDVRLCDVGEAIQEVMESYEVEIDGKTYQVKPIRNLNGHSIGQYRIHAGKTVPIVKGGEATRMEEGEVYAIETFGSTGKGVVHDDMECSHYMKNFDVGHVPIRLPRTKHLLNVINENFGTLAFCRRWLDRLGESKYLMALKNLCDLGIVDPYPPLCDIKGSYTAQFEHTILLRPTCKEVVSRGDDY

Structure (SMILES) | IC50 [nM]
O=C(NCc1cc(F)cc(Cl)c1)C1(O)CCN(c2ccc3c(cnn3C3CCCCO3)c2)C1=O (stereo not shown) [A279] | 10 to 1000
CC1CCN(C(=O)[C@@]2(O)CCN(c3ccccc3)C2=O)CC1 [A316] | 1000 to 10000
CCc1nnc(CCNC(=O)[C@@]2(O)CCN(c3ccccc3)C2=O)s1 [A35] | > 10000
CCn1cc(N2CC[C@](O)(C(=O)NCc3cc(F)cc(F)c3)C2=O)cn1 [A211] | 10 to 1000
O=C(NCC1CCCCC1)[C@@]1(O)CCN(c2ccccc2)C1=O [A324] | 10 to 1000
CC(C)OCCCNC(=O)[C@@]1(O)CCN(c2ccccc2)C1=O [A301] | 1000 to 10000
C#CC(NC(=O)[C@@]1(O)CCN(c2ccccc2)C1=O)c1ccccc1 (stereo partly shown) [A288] | 10 to 1000
O=C(NCc1cccc(Br)c1)[C@]1(Cl)CCN(c2ccccc2)C1=O [A43] | > 10000
CC(=O)N1CCc2cc(N3CCC(O)(C(=O)NCCc4cc(F)cc(Cl)c4)C3=O)ccc21 (stereo not shown) [A261] | 10 to 1000
O=C(NCc1cccc(Br)c1)[C@]1(O)CCN(c2ccc3ccccc3c2)C1=O [A70] | > 10000
CCN(Cc1ccccc1)C(=O)[C@@]1(O)CCN(c2ccccc2)C1=O [A303] | > 10000
CCNC(=O)N1CCc2cc(N3CC[C@](O)(C(=O)NCc4cc(F)cc(Cl)c4)C3=O)ccc21 [A290] | 10 to 1000
O=C(NCc1cccc(Br)c1)[C@@]1(O)CCN(c2ccc(Br)cc2)C1=O [A29] | 10 to 1000
O=C(NCCc1cccs1)[C@]1(O)CCN(c2ccc(F)cc2)C1=O [A78] | 1000 to 10000
O=C(NCc1cc(C(F)(F)F)cc(C(F)(F)F)c1)[C@@]1(O)CCN(c2ccc(F)cc2)C1=O [A163] | > 10000
O=C(NCCCN1CCOCC1)[C@@]1(O)CCN(c2ccccc2)C1=O [A292] | > 10000
O=C(NCCc1cccs1)[C@@]1(O)CCN(c2ccc3ccccc3c2)C1=O [A55] | 10 to 1000
CCc1nnn(CCNC(=O)[C@@]2(O)CCN(c3ccccc3)C2=O)n1 [A3] | 1000 to 10000
O=C(NCCc1noc(C2CCCC2)n1)[C@@]1(O)CCN(c2ccccc2)C1=O [A12] | > 10000

Structure (SMILES) | IC50 [nM]
O=C(NCc1cc(F)cc(Cl)c1)[C@@]1(O)CCN(C2CCCCC2)C1=O [A173] | 10 to 1000
CCc1nnnn1CCNC(=O)[C@@]1(O)CCN(c2ccccc2)C1=O [A13] | > 10000
CNC(=O)Cn1ccc2cc(N3CC[C@](O)(C(=O)NCc4cc(F)cc(Cl)c4)C3=O)ccc21 [A287] | 10 to 1000
COCCN1CC[C@](O)(C(=O)NCc2cc(F)cc(F)c2)C1=O [A171] | 1000 to 10000
COC(=O)N1CCc2cc(N3CCC(O)(C(=O)NCc4cc(F)cc(Cl)c4)C3=O)ccc21 (stereo not shown) [A286] | 10 to 1000
CCCC(C)NC(=O)[C@@]1(O)CCN(c2ccccc2)C1=O (stereo partly shown) [A298] | 1000 to 10000
O=C(NCc1cccc(Br)c1)[C@@]1(O)CCN(c2cccc3ccccc23)C1=O [A71] | 10 to 1000
CN(C(=O)[C@@]1(O)CCN(c2ccccc2)C1=O)C1CCCC1 [A323] | 1000 to 10000
CC(C)(C)c1noc(CCNC(=O)[C@@]2(O)CCN(c3ccccc3)C2=O)n1 [A34] | > 10000
CC(C)n1cc(N2CC[C@](O)(C(=O)NCCc3cc(F)cc(Cl)c3)C2=O)cn1 [A240] | 10 to 1000
O=C(N1CCOCC1)[C@@]1(O)CCN(c2ccccc2)C1=O [A300] | > 10000
O=C(NCc1cccc(Br)c1)[C@]1(O)CCN(c2ccc(Br)cc2)C1=O [A76] | > 10000
O=C(NCCc1nnc(C(F)(F)F)o1)[C@@]1(O)CCN(c2ccccc2)C1=O [A15] | > 10000
O=C(NCCc1cccs1)[C@@]1(O)CCN(c2ccc(F)cc2)C1=O [A32] | 10 to 1000
CC(C)(C)c1nc(CCNC(=O)[C@@]2(O)CCN(c3ccccc3)C2=O)no1 [A10] | > 10000
O=C(NCCc1cc(F)cc(Cl)c1)[C@]1(O)CCN(c2cccc(C(F)(F)F)c2)C1=O [A220] | 1000 to 10000
Cc1ccc(N2CC[C@](O)(C(=O)NCc3cc(F)cc(Cl)c3)C2=O)cn1 [A181] | 10 to 1000
O=C(NCCc1cccs1)[C@@]1(O)CCN(c2ccc(Br)cc2)C1=O [A30] | 10 to 1000

Second part, the molecule after the results:

IC50 [nM] | Structure (SMILES)
> 10000 | O=C(NCc1ccc(C(F)(F)F)cc1)[C@@]1(O)CCN(c2ccccc2)C1=O [A333]
10 to 1000 | O=C(NCCc1cccs1)[C@@]1(O)CCN(c2ccc(F)c(Cl)c2)C1=O [A51]
10 to 1000 | O=C(NCc1ccccc1C(F)(F)F)[C@@]1(O)CCN(c2ccccc2)C1=O [A302]
10 to 1000 | O=C(NCc1c(F)ccc(Cl)c1F)[C@@]1(O)CCN(c2ccccc2)C1=O [A21]
1000 to 10000 | O=C(NCc1cccc(Cl)c1F)[C@]1(O)CCN(c2ccc(F)cc2)C1=O [A67]
10 to 1000 | O=C(NCc1ccco1)[C@@]1(O)CCN(c2ccccc2)C1=O [A62]
10 to 1000 | CC(C)CCNC(=O)C1(O)CCN(c2ccccc2)C1=O (stereo not shown) [A63]
1000 to 10000 | O=C(NCc1cccc(OC(F)F)c1)[C@@]1(O)CCN(c2ccccc2)C1=O [A6]
> 10000 | O=C(NCc1nc2ccccc2s1)[C@@]1(O)CCN(c2ccccc2)C1=O [A60]
1000 to 10000 | O=C(NCc1cccc(Br)c1)[C@]1(O)CCN(c2ccc(F)c(Cl)c2)C1=O [A73]
1000 to 10000 | Cc1ccn(CCNC(=O)[C@@]2(O)CCN(c3ccccc3)C2=O)n1 [A19]
10 to 1000 | O=C(NCc1ccc(F)c(Cl)c1)[C@@]1(O)CCN(c2ccccc2)C1=O [A47]
1000 to 10000 | O=C(NCc1cccc(Cl)c1F)[C@]1(O)CCN(c2cccc(Cl)c2)C1=O [A68]
10 to 1000 | O=C(NCCc1cccs1)[C@]1(O)CCN(c2cccc(Cl)c2)C1=O [A40]
> 10000 | O=C(NCc1cccc(N2CCCC2)n1)[C@@]1(O)CCN(c2ccccc2)C1=O [A25]
1000 to 10000 | O=C(NCc1cccc(OC(F)(F)F)c1)[C@@]1(O)CCN(c2ccccc2)C1=O [A8]
> 10000 | O=C(NCc1cccc(Br)c1)[C@@]1(Cl)CCN(c2ccccc2)C1=O [A39]

IC50 [nM] | Structure (SMILES)
10 to 1000 | O=C(NCc1cc(Br)ccc1F)[C@@]1(O)CCN(c2ccccc2)C1=O [A22]
10 to 1000 | O=C(NCc1cccc(Br)c1)[C@@]1(O)CCN(c2ccccc2)C1=O [A1]
10 to 1000 | CS(=O)(=O)c1ccc(N2CC[C@](O)(C(=O)NCc3cc(F)cc(Cl)c3)C2=O)cc1 [A260]
1000 to 10000 | O=C(NCc1ccco1)C1(O)CCN(c2ccccc2)C1=O (stereo not shown) [A64]
> 10000 | O=C(NCc1ccc(F)c(Cl)c1)[C@]1(O)CCN(c2ccccc2)C1=O [A74]
1000 to 10000 | O=C(NCc1cccnc1)[C@@]1(O)CCN(c2ccccc2)C1=O [A24]
> 10000 | O=C(NCc1ccccn1)[C@@]1(O)CCN(c2ccccc2)C1=O [A26]
> 10000 | O=C(NCc1cccc(Br)c1)[C@]1(O)CCN(c2ccc(F)cc2F)C1=O [A72]
10 to 1000 | O=C(NCc1cccc(Br)c1)[C@@]1(O)CCN(c2ccc(F)cc2F)C1=O [A52]
1000 to 10000 | Cc1nc(CCNC(=O)[C@@]2(O)CCN(c3ccccc3)C2=O)cs1 [A16]
> 10000 | Cc1nnc(CCNC(=O)[C@@]2(O)CCN(c3ccccc3)C2=O)s1 [A14]
1000 to 10000 | CCCOCCNC(=O)[C@@]1(O)CCN(c2ccccc2)C1=O [A329]
10 to 1000 | CC(C)n1cc(N2CC[C@](O)(C(=O)NCc3cccc(Cl)c3F)C2=O)cn1 [A200]
10 to 1000 | O=C(NCc1cccc(Cl)c1F)[C@@]1(O)CCN(c2ccccc2)C1=O [A20]
10 to 1000 | N#Cc1cccc(CNC(=O)[C@@]2(O)CCN(c3ccccc3)C2=O)c1 [A215]
10 to 1000 | O=C(NCCc1nccs1)[C@@]1(O)CCN(c2ccccc2)C1=O [A17]
